Test results reported in ChEMBL document CHEMBL3045065, “Synthesis and analgesic effects of 2-(2-carboxyphenylsulfanyl)-N-(4-substitutedphenyl)acetamide derivatives” (Med Chem Res, 2011).

Key:
[1] = test system: Mus musculus; assay: Neurotoxicity in Mus musculus Swiss albino (mouse) assessed as falling latency at 100 mg/kg, ip by Rota-Rod test; type: toxicity, organism-based; set-up: dose 100 mg/kg, route intraperitoneal; conditions: in vivo
[2] = test system: Mus musculus; assay: Neurotoxicity in Mus musculus Swiss albino (mouse) assessed as effect on horizontal locomotory activity at 100 mg/kg, ip; type: toxicity, organism-based; set-up: dose 100 mg/kg, route intraperitoneal; conditions: in vivo
[3] = test system: Mus musculus; assay: Analgesic activity in Mus musculus Swiss albino (mouse) at 100 mg/kg, ip measured after 30 min by tail clip test; type: functional; conditions: route intraperitoneal
[4] = test system: Mus musculus; assay: Analgesic activity in Mus musculus Swiss albino (mouse) assessed as paw licking and jumping latency at 100 mg/kg, ip measured after 30 min by hot plate test; type: functional; conditions: route intraperitoneal
[5] = test system: Mus musculus; assay: Neurotoxicity in Mus musculus Swiss albino (mouse) assessed as effect on vertical locomotory activity at 100 mg/kg, ip; type: toxicity, organism-based; set-up: dose 100 mg/kg, route intraperitoneal; conditions: in vivo
[6] = test system: Mus musculus; assay: Analgesic activity in Mus musculus Swiss albino (mouse) assessed as inhibition of acetic acid-induced writhing at 100 mg/kg, ip measured after 30 min relative to control; type: functional; conditions: 0.5 h, route intraperitoneal
[7] = test system: Mus musculus; assay: Toxicity in Mus musculus Swiss albino (mouse) assessed as mortality at 100 mg/kg, ip; type: organism-based; set-up: dose 100 mg/kg, route intraperitoneal; conditions: in vivo

SMILES	Activity [1]	Activity [2]	MPE [3] [%]	Activity [4] [%]	Activity [5]	inhibition in vivo at 100 mg/kg [6] [%]	Activity [7]
O=C(CSc1ccccc1C(=O)O)Nc1ccccc1	Non-toxic	Non-toxic	52.1	79.98	Non-toxic	54.8	Non-toxic
O=C(CSc1ccccc1C(=O)O)Nc1ccc(Cl)cc1	Non-toxic	Non-toxic	43.94	65.73	Non-toxic	49.7	Non-toxic
O=C(CSc1ccccc1C(=O)O)Nc1ccc(Br)cc1	Non-toxic	Non-toxic	13.71	8.48	Non-toxic	9.04	Non-toxic
Cc1ccc(NC(=O)CSc2ccccc2C(=O)O)cc1	Non-toxic	Non-toxic	72.31	89.37	Non-toxic	76.3	Non-toxic
COc1ccc(NC(=O)CSc2ccccc2C(=O)O)cc1	Non-toxic	Non-toxic	25.01	35.12	Non-toxic	27.7	Non-toxic
O=C(CSc1ccccc1C(=O)O)Nc1ccc(C(=O)O)cc1	Non-toxic	Non-toxic	17.05	18.07	Non-toxic	20.3	Non-toxic
CC(=O)Nc1ccc(O)cc1 [ACETAMINOPHEN]	Non-toxic	Non-toxic		51.61	Non-toxic	29.4	Non-toxic
O=C(O)c1ccccc1S [THIOSALICYLIC ACID]	Non-toxic	Non-toxic	40.37	62.49	Non-toxic	33.9	Non-toxic
